Measured values: patent US20230407296A1, “Method to Regulate ALOX12-AS1 IncRNA-Mediated Alteration of ALOX12 Protein and to Screen for Novel Drugs to Alter ALOX12 Protein Level” (priority 2021, published 2023)
d = 2'-deoxy (DNA); m = 2'-O-methyl

Experiments:
ALOX12 = target: T1, ALOX12 (Homo sapiens, UniProt P18054); details: cited from earlier work
T1 sequence (P18054 1-663): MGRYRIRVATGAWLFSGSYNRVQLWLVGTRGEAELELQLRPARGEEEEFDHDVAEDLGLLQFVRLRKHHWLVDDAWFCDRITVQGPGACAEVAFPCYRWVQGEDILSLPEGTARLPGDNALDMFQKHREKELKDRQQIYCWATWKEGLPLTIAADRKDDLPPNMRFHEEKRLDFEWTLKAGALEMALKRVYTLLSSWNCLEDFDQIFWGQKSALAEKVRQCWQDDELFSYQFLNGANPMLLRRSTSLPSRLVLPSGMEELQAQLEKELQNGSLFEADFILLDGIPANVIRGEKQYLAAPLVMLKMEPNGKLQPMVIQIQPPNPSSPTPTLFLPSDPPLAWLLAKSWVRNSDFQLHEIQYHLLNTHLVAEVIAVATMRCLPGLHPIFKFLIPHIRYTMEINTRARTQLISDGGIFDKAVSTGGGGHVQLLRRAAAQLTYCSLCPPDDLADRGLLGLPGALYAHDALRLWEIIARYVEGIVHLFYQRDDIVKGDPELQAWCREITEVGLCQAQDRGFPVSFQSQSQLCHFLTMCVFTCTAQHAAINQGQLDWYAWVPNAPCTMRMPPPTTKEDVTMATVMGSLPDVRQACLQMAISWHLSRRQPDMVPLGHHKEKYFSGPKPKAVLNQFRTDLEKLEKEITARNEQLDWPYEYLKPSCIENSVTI

ALOX12 mRNA [1] = details: HepG2 cells; cited from earlier work
ALOX12-AS1-202 = ALOX12-AS1-202 level in ASO-transfected HEK293 cells (multiplex RT-PCR / qPCR); format: cell-based, human; details: HEK293, ALOX12-AS1-201-targeted ASO, 24 hours after transfection, quantitative PCR
Protocol: (§1) Small interfering RNA (siRNA)-mediated knockdown of ALOX12-AS1 in HEK293 cells was ineffective possibly because of the nuclear localization of the lncRNA. As an alternative approach, multiple isoform-specific oligonucleotides (ASOs) complementary to different regions of ALOX12-AS1-201/202 were designed (FIG. 7A-C).
(§2) Three ALOX12-AS1-202-specific ASOs were designed and two of them (ASO-2 and -3) reduced ALOX12-AS1-202 mRNA levels within 24 hours of transfection (FIGS. 7L&O, red rectangle).
(§3) Total RNA from different cell lines was extracted with Trizol reagent (Catalog number: 15596026; ThermoFisher Scientific, Canada) as per the manufacturer's recommended protocol. […] Absolute quantification of ALOX12-AS1 lncRNA isoforms was performed in a Mastercycler®ep realplex real-time PCR system (Eppendorf, Hamburg, Germany) using SYBR green dye (Catalog number: S7563; ThermoFisher Scientific). […] Real-time PCR data quality control calculations were determined by the SAS program as described previously and the calculated PCR efficiency was between 95%-99%. Quantitative RT-PCR was conducted for different cell-line derived RNAs, and the specificity of each amplified product was confirmed by melting curve analysis. Results were expressed as copy number of specific isoforms per 100 ng of total RNA.

[2] = tested on: ALOX12 protein level in HEK293 cells; assay: ALOX12 protein level in HEK293 cells (immunoblot); format: cell-based, human
Protocol: Relative quantification of proteins was performed as described previously [35, 106]. The cell lysates were prepared in 1×RIPA lysis and extraction buffer (catalogue number: 89900, ThermoFisher Scientific) supplemented with 1× Halt protease and phosphatase inhibitor cocktail (catalogue number: 78441, ThermoFisher Scientific). The protein lysates were denatured in Laemmli buffer containing 2% SDS, 10% glycerol, 0.002% bromophenol blue, 0.75 M Tris-HCl pH 6.8, and 100 mM DTT. The immunoblots were imaged using a ChemiDoc XRS+ system (Bio-Rad) and band intensities were quantified using ImageJ (version 1.48) Software [107]. Due to the possibility of inconsistency in the relative expression of housekeeping genes, we normalized all proteins of interest based on the intensity of the Oriole-stained protein profile [92].

ALOX12 mRNA [3] = assay: ALOX12 mRNA level in HEK293 cells (multiplex RT-PCR / qPCR); format: cell-based, human
Text: HEK293 cells were transiently transfected with plasmids expressing ALOX12-AS1-201/202 to study lncRNA-mediated suppression of ALOX12. […] The nucleo-cytoplasmic abundance of ALOX12-AS1 lncRNA may be tightly regulated in HEK293 cells. Therefore, increased transcription of the transfected plasmids in the nucleus may not ensure higher levels of the lncRNAs in the cytoplasm, which may be a requisite for suppression of ALOX12. To overcome this limitation, HEK293 cells were transfected with in vitro transcribed ALOX12-AS1-201/202 mRNAs to ensure high cytoplasmic abundance of the antisense lncRNAs. […]
as §3

ALOX12-AS1-201 = ALOX12-AS1-201 level in ASO-transfected HEK293 cells (multiplex RT-PCR / qPCR); format: cell-based, human
Protocol: as §1, §2, §3

O=c1cc(-c2ccccc2)oc2cc(O)c(O)c(O)c12 [baicalein, 5,6,7-Trihydroxyflavone]
inhibition of ALOX12 (ALOX12): can be inhibited
selectivity for ALOX12 over other ALOXs (ALOX12; inhibits other ALOXs): not selective for ALOX12

CCCCCCCC/C=C/CCCCCCCC(=O)O [elaidic acid]
reduction of ALOX12 mRNA expression (ALOX12 mRNA [1]): 1.8 fold

mA*mG*mA*mA*mC*T*G*T*C*A*A*T*A*A*T*mC*mU*mU*mA*mC (antisense AGAACTGTCAATAATCUUAC; sugars from the 5' end m5 d10 m5, all phosphorothioate, methylation of C not given here) [ASO-4, ALOX12-AS1-201-targeted gapmer ASO]
ALOX12-AS1-202 isoform level (ALOX12-AS1-202): significant reduction
ALOX12 protein level ([2]; HEK293, ALOX12-AS1-201-targeted ASO, 24 hours after transfection, quantified immunoblot): significantly reduced
ALOX12 protein level ([2]; HEK293, ALOX12-AS1-201-targeted ASOs, immunoblot): dramatically reduced
ALOX12 mRNA level (ALOX12 mRNA [3]; HEK293, ALOX12-AS1-201-targeted ASO, 24 hours after transfection, quantitative PCR): unchanged
ALOX12 mRNA levels (ALOX12 mRNA [3]; HEK293, ALOX12-AS1-201-targeted ASOs, multiplex RT-PCR): relatively unaltered
ALOX12-AS1-201 isoform level (ALOX12-AS1-201; HEK293, 24 hours after transfection, quantitative PCR): significant reduction
knockdown of ALOX12-AS1-201 (ALOX12-AS1-201; HEK293, ALOX12-AS1-201-targeted ASOs, within 24 hours of transfection, multiplex RT-PCR): ~27%
